From patent US6017956A, “N,N-disubstituted amic acid derivatives” (Banyu Pharmaceutical Co., Ltd., priority 1994, dated 2000)

Experiments:
[1] = tested on: farnesyl-modification of Ras protein in NIH3T3 cells transformed by activated ras gene; assay: Inhibitory activities against farnesyl-modification of Ras protein in NIH3T3 cells transformed by activated ras gene; type: cell-based; settings: Mus musculus, 24 hours, proportion of non-farnesyl-modified Ras protein by densitometer, read-out: 50% inhibitory concentrations against farnesyl-modification of Ras protein, IC50
Method: PHARMACOLOGICAL TEST EXAMPLE 2
(Inhibitory Activities Against Farnesyl-Modification of Ras Protein)
Using the compounds of the present invention, inhibitory activities against farnesyl-modification of Ras protein in NIH3T3 cells transformed by activated ras gene, were measured.
The NIH3T3 cells transformed by activated ras gene, were seeded on a culture plate and cultured for 3 days. Then, a compound of the present invention in a predetermined concentration was added to the culture. In accordance with the method disclosed in J. Biol. Chem., vol. 268, p. 18415 (1993), the cells were cultured for 24 hours and then taken off from the plate, and the cells were dissolved. After centrifugal separation for 5 minutes under 12000 g, the supernatant was used as a cell extract. The cell extract was subjected to SDS polyacrylamide gel electrophoresis to separate farnesyl-modified Ras protein and non-farnesyl-modified Ras protein. The protein on the gel was transferred onto a nitrocellulose membrane, and an anti-Ras protein antibody was reacted as a probe (primary antibody reaction). An anti-primary antibody, a peroxidase inclusion (secondary antibody), was reacted, and then Ras protein was detected by a chemical fluorescence enhancing kit. The proportion of non-farnesyl-modified Ras protein was quantified by a densitometer and taken as the inhibitory activity.
The 50% inhibitory concentrations (IC50 values) of the compounds of the present invention against farnesyl-modification of Ras protein as shown in Table

[2] = target: T1, protein-farnesyl transferase (PFT) (Rattus norvegicus, UniProt Q02293+Q04631); assay: Inhibitory activities against protein-farnesyl transferase; type: biochemical; settings: PFT derived from rat brain; prenyl acceptor H-ras protein or biotin-added Lys-Thr-Ser-Cys-Val-Ile-Met; 37° C., 20 minutes; read-out: 50% inhibitory concentrations against PFT activities, IC50
T1 construct: PFT derived from rat brain; from tissue; host or cells: rat brain, soluble fraction (30-50% ammonium sulfate cut, Q-Sepharose fraction)
Method: Inhibitory activities against protein-farnesyl transferase
PFT was separated in such a manner that a soluble fraction of rat's brain was fractionated by means of 30%-50% saturated ammonium sulfate, further dialyzed and then subjected to column chromatography by Q-cephalose™ (manufactured by Pharmacia) (Reiss et al, Cell, vol. 62, p. 81-88 (1990)).
(2) Method for measuring PFT activities
Measurement of PFT activities was conducted by using, as a prenyl acceptor, H-ras protein or a substance that biotin was added to N-terminal of a peptide corresponding to a 7 amino acid residue at C terminal of K-rasB protein (biotin-added Lys-Thr-Ser-Cys-Val-Ile-Met) and, as a prenyl doner, [^3 H]-labeled farnesylpyrophosphate (FPP) (Reiss et al, Methods: A Companion to a Methods in Enzymology, vol. 1, No. 3, p. 241-245 (1990)). […]
The enzymatic reaction product containing H-ras protein as the prenyl acceptor, was analyzed by SDS-PAGE (sodium dodecylsulfate/polyacrylamide gel electrophoresis). […]
The measurement of PFT activities using H-ras protein as the prenyl receptor, was also analyzed by a rapid separate method. […]

IC50 [2] [nM]	Compound	IC50 [1] [nM]
–	C[C@H]([C@H](Cc1ccc(C(=O)Nc2ccccc2)o1)c1ccc([N+](=O)[O-])cc1)N(Cc1ccc2ccccc2c1)C(=O)C(O)=C(CC(=O)O)C(=O)OC(C)(C)C (racemic) [Example 25, 3-tert-butoxycarbonyl-4-hydroxy-4-[N-[(1RS,2RS)-1-methyl-2-(4-nitrophenyl)-3-{5-(phenylcarbamoyl)-2-furyl}propyl]-N-(2-naphthylmethyl)carbamoyl]-3-butenoic acid]	21
–	C=CCOC(=O)C(CC(=O)O)=C(O)C(=O)N(Cc1ccc2ccccc2c1)[C@H](C)[C@H](Cc1ccc(C(=O)Nc2ccccc2)o1)c1ccc2c(c1)OCO2 (racemic) [Example 29, 3-allyloxycarbonyl-4-hydroxy-4-[N-[(1RS,2RS)-1-methyl-2-(3,4-methylenedioxyphenyl)-3-{5-(phenylcarbamoyl)-2-furyl}propyl]-N-(2-naphthylmethyl)carbamoyl]-3-butenoic acid]	4.7
–	CC(C)OC(=O)C(CCC(=O)O)=C(O)C(=O)N(Cc1ccc2ccccc2c1)[C@H](C)[C@H](Cc1ccc(C(=O)Nc2ccccc2)o1)c1ccc([N+](=O)[O-])cc1 (racemic) [Example 30, 5-hydroxy-4-isopropoxycarbonyl-5-[N-[(1RS,2RS)-1-methyl-2-(4-nitrophenyl)-3-{5-(phenylcarbamoyl)-2-furyl}propyl]-N-(2-naphthylmethyl)carbamoyl]-4-pentenoic acid]	21
0.6	C[C@H]([C@H](Cc1ccc(C(=O)Nc2ccccc2)o1)c1ccc([N+](=O)[O-])cc1)N(Cc1ccc2ccccc2c1)C(=O)CC(CC(=O)O)C(=O)O (stereo partly drawn) [Example 1, N-[(1-RS,2RS)-1-methyl-2-(4-nitrophenyl)-3-{5-(phenylcarbamoyl)-2-furyl}propyl]-N-(2-naphthylmethyl)carbamoylmethylsuccinic acid]	–
1.8	C[C@H]([C@H](Cc1cccc(C(=O)Nc2ccccc2)c1)c1ccc(Cl)cc1)N(Cc1ccc2ccccc2c1)C(=O)CC(CC(=O)O)C(=O)O (stereo partly drawn) [Example 10, N-{(1RS,2RS)-2-(4-chlorophenyl)-1-methyl-3-(3-phenylcarbamoylphenyl)propyl}-N-(2-naphthylmethyl)carbamoylmethylsuccinic acid]	–
